Assay results: patent publication US10167272B2, “Muscarinic agonists” (Heptares Therapeutics Limited, priority 2015, dated 2019)
Like-named read-outs stand apart in the source and are kept apart here.

Experiments:
Assay type in all cases: cell-based
[1] = molecular target: T1, human muscarinic M1 receptor (Homo sapiens, UniProt P11229); assay: Alphascreen Surefire phospho-ERK1/2 functional assay, M1; details: phospho-ERK1/2; for EC50: read-out: pEC50 M1 (converted); for Emax: CHO, read-out: % Emax cf. ACh (M1), CHO cells stably expressing human M1; for Emax / % Emax cf. ACh (M1): relative to ACh
T1 sequence (P11229 1-460): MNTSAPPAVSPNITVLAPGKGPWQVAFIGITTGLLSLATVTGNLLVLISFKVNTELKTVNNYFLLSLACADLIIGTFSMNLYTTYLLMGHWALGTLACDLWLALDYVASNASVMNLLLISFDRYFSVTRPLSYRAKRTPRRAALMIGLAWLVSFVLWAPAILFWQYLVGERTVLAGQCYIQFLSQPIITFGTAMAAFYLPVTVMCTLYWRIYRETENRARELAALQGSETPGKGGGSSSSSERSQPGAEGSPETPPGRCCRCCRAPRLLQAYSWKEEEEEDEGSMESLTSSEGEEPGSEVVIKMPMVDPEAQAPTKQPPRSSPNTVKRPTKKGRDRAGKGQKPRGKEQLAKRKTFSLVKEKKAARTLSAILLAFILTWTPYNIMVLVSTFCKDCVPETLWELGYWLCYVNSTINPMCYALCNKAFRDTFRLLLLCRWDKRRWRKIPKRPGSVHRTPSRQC
Description: (§1) ERK1/2 phosphorylation is a downstream consequence of both Gq/11 and Gi/o protein coupled receptor activation, making it highly suitable for the assessment of M1, M3 (Gq/11 coupled) and M2, M4 receptors (Gi/o coupled), rather than using different assay formats for different receptor subtypes. CHO cells stably expressing the human muscarinic M1, M2, M3 or M4 receptor were plated (25K/well) onto 96-well tissue culture plates in MEM-alpha+10% dialysed FBS. Once adhered, cells were serum-starved overnight. Agonist stimulation was performed by the addition of 5 μL agonist to the cells for 5 min (37° C.). Media was removed and 50 μL of lysis buffer added. After 15 min, a 4 μL sample was transferred to 384-well plate and 7 μL of detection mixture added.

[2] = molecular target: T2, human muscarinic M2 receptor (Homo sapiens, UniProt P08172); assay: Alphascreen Surefire phospho-ERK1/2 functional assay, M2; details: for EC50: CHO cells stably expressing human M2, read-out: pEC50 M2 (converted); for Emax: CHO, read-out: % Emax cf. ACh (M2), CHO cells stably expressing human M2, relative to ACh
T2 sequence (P08172 1-466): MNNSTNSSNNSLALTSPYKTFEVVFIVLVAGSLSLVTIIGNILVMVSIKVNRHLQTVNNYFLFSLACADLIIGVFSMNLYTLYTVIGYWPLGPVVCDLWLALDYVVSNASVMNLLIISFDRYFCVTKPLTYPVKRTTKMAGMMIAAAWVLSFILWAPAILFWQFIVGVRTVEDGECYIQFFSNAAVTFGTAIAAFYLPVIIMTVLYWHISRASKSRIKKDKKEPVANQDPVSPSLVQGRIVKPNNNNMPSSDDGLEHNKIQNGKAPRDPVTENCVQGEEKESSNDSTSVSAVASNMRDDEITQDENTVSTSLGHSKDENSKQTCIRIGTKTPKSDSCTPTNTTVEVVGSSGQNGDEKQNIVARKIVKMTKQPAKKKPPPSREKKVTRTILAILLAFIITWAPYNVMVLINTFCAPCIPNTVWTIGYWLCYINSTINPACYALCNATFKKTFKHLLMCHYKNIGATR
Description: as §1

[3] = molecular target: T3, human muscarinic M3 receptor (Homo sapiens, UniProt P20309); assay: Alphascreen Surefire phospho-ERK1/2 functional assay, M3; details: for EC50: read-out: pEC50 M3 (converted); for Emax: CHO
T3 construct: expressed in transfected cells
Description: as §1

[4] = molecular target: T4, human muscarinic M4 receptor (Homo sapiens, UniProt P08173); assay: Alphascreen Surefire phospho-ERK1/2 functional assay, M4; details: for Emax: CHO
T4 construct: expressed in transfected cells
T4 sequence (P08173 1-479): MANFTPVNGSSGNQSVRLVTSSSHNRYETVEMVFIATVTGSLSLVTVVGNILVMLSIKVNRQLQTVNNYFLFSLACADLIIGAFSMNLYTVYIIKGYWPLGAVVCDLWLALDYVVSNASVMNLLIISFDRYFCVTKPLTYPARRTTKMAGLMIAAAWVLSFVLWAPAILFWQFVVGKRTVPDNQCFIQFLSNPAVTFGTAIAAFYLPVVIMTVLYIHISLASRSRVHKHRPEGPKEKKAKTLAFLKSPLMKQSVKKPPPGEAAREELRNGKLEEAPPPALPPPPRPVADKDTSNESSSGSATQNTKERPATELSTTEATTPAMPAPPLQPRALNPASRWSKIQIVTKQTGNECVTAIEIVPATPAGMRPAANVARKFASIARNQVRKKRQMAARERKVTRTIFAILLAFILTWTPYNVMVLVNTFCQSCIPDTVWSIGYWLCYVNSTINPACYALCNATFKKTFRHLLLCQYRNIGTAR

[5] = CHO cells stably expressing human M1
[6] = CHO cells stably expressing human M3, phospho-ERK1/2
[7] = read-out: % Emax cf. ACh (M3), CHO cells stably expressing human M3, phospho-ERK1/2, relative to ACh
[8] = CHO cells stably expressing human M4, phospho-ERK1/2, read-out: pEC50 M4 (converted)
[9] = read-out: % Emax cf. ACh (M4), CHO cells stably expressing human M4, phospho-ERK1/2, relative to ACh
[10] = CHO cells stably expressing human M4, phospho-ERK1/2, relative to ACh

T3 sequence (P20309 whole entry): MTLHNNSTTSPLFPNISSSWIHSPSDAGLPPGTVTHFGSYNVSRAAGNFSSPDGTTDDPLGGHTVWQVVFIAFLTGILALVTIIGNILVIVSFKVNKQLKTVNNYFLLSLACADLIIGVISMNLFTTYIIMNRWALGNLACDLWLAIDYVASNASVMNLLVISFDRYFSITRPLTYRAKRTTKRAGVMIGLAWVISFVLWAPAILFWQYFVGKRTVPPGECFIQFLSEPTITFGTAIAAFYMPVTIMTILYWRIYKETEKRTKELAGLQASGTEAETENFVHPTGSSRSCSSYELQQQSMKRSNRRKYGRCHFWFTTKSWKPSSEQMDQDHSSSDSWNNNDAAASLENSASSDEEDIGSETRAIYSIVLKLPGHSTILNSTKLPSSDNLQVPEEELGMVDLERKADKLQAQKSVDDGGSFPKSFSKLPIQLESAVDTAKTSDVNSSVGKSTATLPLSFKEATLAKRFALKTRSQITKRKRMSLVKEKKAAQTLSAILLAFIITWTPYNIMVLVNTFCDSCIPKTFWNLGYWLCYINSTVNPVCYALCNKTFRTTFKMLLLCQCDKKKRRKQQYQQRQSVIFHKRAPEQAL

SMILES	EC50 [1, 5]	Emax [1]	EC50 [2]	Emax [2]	EC50 [3, 6]	Emax [3, 7]	EC50 [4, 8]	Emax [4, 9]	% Emax cf. ACh (M1) [1, 5]	% Emax cf. ACh (M4) [4, 10]	pEC50 M1 [1, 5]	pEC50 M2 ([2]; CHO cells stably expressing human M2)	% Emax cf. ACh (M2) ([2]; CHO cells stably expressing human M2, relative to ACh)	pEC50 M3 [3, 6]	% Emax cf. ACh (M3) ([3]; CHO cells stably expressing human M3, phospho-ERK1/2, relative to ACh)	pEC50 M4 ([4]; CHO cells stably expressing human M4, phospho-ERK1/2)	EC50 ([4]; pEC50 M4)	% Emax cf. ACh (M1) ([1]; CHO cells stably expressing human M1, listed as 2-21 isomer 2)	Emax ([3]; read-out: % Emax cf. ACh (M3))	Emax ([4]; read-out: % Emax cf. ACh (M4))
CCOC(=O)N1CCC2(CC(N3CCC(N(CC(F)(F)F)C4CC4)CC3)C2)C1 (single isomer, unassigned) [2-48 Isomer 2]	39.8 nM	117%	12600 nM	68%	7940 nM	53%	39.8 nM	75%	–	–	–	–	–	–	–	–	–	–	–	–
CCOC(=O)N1CCC2(CC(N3CCC(N(C(C)=O)C4CC4)CC3)C2)C1 (single isomer, unassigned) [2-3 Isomer 2]	200 nM	–	> 20000 nM	13%	> 20000 nM	6%	31.6 nM	–	93%	93%	–	–	–	–	–	–	–	–	–	–
CCOC(=O)N1CCC2(CC(N3CCC(N(Cc4ccon4)C4CC4)CC3)C2)C1 (single isomer, unassigned) [2-10 Isomer 2]	794 nM	42%	> 20000 nM	11%	> 20000 nM	7%	31.6 nM	122%	–	–	–	–	–	–	–	–	–	–	–	–
CCOC(=O)N1CCC2(CC(N3CCC(N(CC(=O)OC)C4CC4)CC3)C2)C1 (single isomer, unassigned) [2-9 Isomer 2]	> 20000 nM	14%	> 20000 nM	6%	> 20000 nM	5%	100 nM	92%	–	–	–	–	–	–	–	–	–	–	–	–
CCOC(=O)N1CCC2(CC(N3CCC(N(CC)C(=O)OCC)CC3)C2)C1 (single isomer, unassigned) [2-40 Isomer 2]	501 nM	39%	> 20000 nM	32%	> 20000 nM	9%	63.1 nM	110%	–	–	–	–	–	–	–	–	–	–	–	–
CCOC(=O)N1CCC2(CC(N3CCC(N(CC)C(C)=O)CC3)C2)C1 (single isomer, unassigned) [2-2 Isomer 2]	–	–	–	–	–	–	–	–	91%	99%	6.2	< 4.7	18%	< 4.7	9%	7.4	–	–	–	–
CCOC(=O)N1CCC2(CC(N3CCC(C(C)n4cccn4)CC3)C2)C1 (single isomer, unassigned) [2-65 Isomer 2a]	1000 nM	–	> 20000 nM	15%	> 20000 nM	15%	200 nM	–	43%	45%	–	–	–	–	–	–	–	–	–	–
CCOC(=O)N1CCC2(CC(N3CCC(N(CC(F)F)C(C)=O)CC3)C2)C1 (single isomer, unassigned) [2-24 Isomer 2]	398 nM	91%	> 20000 nM	5%	> 20000 nM	17%	10 nM	124%	–	–	–	–	–	–	–	–	–	–	–	–
CCOC(=O)N1CCC2(CC(N3CCC(N(CC)CC(F)F)CC3)C2)C1 (single isomer, unassigned) [2-46 Isomer 2]	316 nM	63%	> 20000 nM	5%	> 20000 nM	12%	–	98%	–	–	–	–	–	–	–	–	7.94 nM	–	–	–
CCOC(=O)N1CCC2(CC(N3CCC(N(CC4(C)CCC4)C(C)=O)CC3)C2)C1 (single isomer, unassigned) [Example 2-21 Isomer 2]	63.1 nM	–	> 20000 nM	18%	> 20000 nM	22%	158 nM	–	–	–	–	–	–	–	–	–	–	89%	–	–
[2H]C([2H])(C)OC(=O)N1CCC2(CC(N3CCC(N(CC)C(C)=O)CC3)C2)C1 (single isomer, unassigned) [2-38 Isomer 2]	631 nM	76%	> 20000 nM	21%	> 20000 nM	1%	20 nM	115%	–	–	–	–	–	–	–	–	–	–	–	–
CCOC(=O)N1CCC2(CC(N3CCC(N(CCOC)CC(F)(F)F)CC3)C2)C1 (single isomer, unassigned) [2-52 Isomer 2]	398 nM	93%	> 20000 nM	7%	> 20000 nM	7%	25.1 nM	106%	–	–	–	–	–	–	–	–	–	–	–	–
CCOC(=O)N1CCC2(CC(N3CCC(C(C)N(C(C)=O)C4CC4)CC3)C2)C1 (single isomer, unassigned) [2-13 Isomer 2]	> 20000 nM	18%	> 20000 nM	5%	> 20000 nM	4%	126 nM	88%	–	–	–	–	–	–	–	–	–	–	–	–
CCOC(=O)N1CCC2(CC(N3CCC(SCc4ccccc4)CC3)C2)C1 (single isomer, unassigned) [2-67 Isomer 2]	> 20000 nM	19%	> 20000 nM	2%	> 20000 nM	2%	31.6 nM	55%	–	–	–	–	–	–	–	–	–	–	–	–
CCOC(=O)N1CCC2(CC(N3CCC(N(CC4(OC)CCC4)C(C)=O)CC3)C2)C1 (single isomer, unassigned) [2-30 Isomer 2]	100 nM	–	5010 nM	42%	> 20000 nM	26%	79.4 nM	–	104%	96%	–	–	–	–	–	–	–	–	–	–
CCOC(=O)N1CCC2(CC(N3CCC(N(CC)CCC#N)CC3)C2)C1 (single isomer, unassigned) [2-55 Isomer 2]	> 20000 nM	161%	> 20000 nM	15%	> 20000 nM	5%	25.1 nM	65%	–	–	–	–	–	–	–	–	–	–	–	–
CCOC(=O)N1CCC2(CC(N3CCC(N(CCF)Cc4cnco4)CC3)C2)C1 (single isomer, unassigned) [2-61 Isomer 2]	> 20000 nM	21%	> 20000 nM	52%	> 20000 nM	65%	–	101%	–	–	–	–	–	–	–	–	39.8 nM	–	–	–
CC(=O)OCC[N+](C)(C)C [ACh, acetylcholine, reference compound]	–	–	–	–	–	–	–	–	–	–	–	–	–	–	–	–	–	–	115%	110%
CCOC(=O)N1CCC2(CC(N3CCC(N(CCO)C4CCC4)CC3)C2)C1 (single isomer, unassigned) [2-50 Isomer 2]	> 20000 nM	17%	–	–	–	–	251 nM	70%	–	–	–	–	–	–	–	–	–	–	–	–
